IC50 data for four compounds are collected here from patent US10160755B2 (Plexxikon Inc., priority 2015, dated 2018).

One test has as its target T1, FLT3-ITD (Homo sapiens, UniProt P36888).
T1 construct: FLT3-ITD; Invitrogen #PV6190
T1 sequence (P36888 1-993): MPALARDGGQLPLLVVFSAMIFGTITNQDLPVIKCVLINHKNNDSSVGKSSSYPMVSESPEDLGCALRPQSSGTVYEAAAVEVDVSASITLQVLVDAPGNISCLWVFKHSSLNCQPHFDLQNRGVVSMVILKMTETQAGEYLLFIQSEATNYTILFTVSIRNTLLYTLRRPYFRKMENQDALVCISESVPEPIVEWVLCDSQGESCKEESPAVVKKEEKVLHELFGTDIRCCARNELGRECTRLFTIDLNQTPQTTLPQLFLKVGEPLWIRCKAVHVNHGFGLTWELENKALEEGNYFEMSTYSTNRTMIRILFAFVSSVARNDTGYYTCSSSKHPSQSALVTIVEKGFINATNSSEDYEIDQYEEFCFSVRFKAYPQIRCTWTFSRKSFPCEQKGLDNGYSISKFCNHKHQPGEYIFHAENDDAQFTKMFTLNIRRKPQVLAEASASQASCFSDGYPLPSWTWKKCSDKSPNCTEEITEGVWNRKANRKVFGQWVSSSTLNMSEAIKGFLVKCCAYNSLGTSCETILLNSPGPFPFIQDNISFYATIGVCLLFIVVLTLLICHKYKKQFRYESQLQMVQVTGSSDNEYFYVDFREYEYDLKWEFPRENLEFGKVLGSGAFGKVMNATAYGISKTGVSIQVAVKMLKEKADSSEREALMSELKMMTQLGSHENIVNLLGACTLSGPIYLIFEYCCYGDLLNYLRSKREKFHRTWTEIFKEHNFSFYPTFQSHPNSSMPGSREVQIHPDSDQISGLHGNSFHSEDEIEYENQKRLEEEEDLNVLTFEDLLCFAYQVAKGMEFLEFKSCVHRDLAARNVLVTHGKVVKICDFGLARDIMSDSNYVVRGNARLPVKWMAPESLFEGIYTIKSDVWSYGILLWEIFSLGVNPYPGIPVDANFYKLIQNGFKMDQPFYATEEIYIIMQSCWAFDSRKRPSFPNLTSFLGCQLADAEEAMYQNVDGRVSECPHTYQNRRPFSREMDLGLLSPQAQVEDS
Put plainly: FLT3-ITD biochemical kinase assay (AlphaScreen). An outline of the steps:
(§1)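 Recombinant enzyme phosphorylated biotin-poly(Glu4-Tyr) peptide (30 nM final); ATP final 10 μM for FLT3-D835Y, 100 μM for FLT3-ITD. AlphaScreen read-out: streptavidin donor and anti-phosphotyrosine (PY20) acceptor beads, 20 and 60 min at room temperature; inhibition seen as drop in 580 nm proximity signal; IC50 determined.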
(In general: In Alpha technology, singlet oxygen from a donor bead excites a nearby acceptor bead.)

For another test, the target named is T2, FLT3-D835Y (Homo sapiens, UniProt P36888, D835Y).
T2 construct: purchased Invitrogen PV3967
T2 sequence (P36888 27-993 D835Y): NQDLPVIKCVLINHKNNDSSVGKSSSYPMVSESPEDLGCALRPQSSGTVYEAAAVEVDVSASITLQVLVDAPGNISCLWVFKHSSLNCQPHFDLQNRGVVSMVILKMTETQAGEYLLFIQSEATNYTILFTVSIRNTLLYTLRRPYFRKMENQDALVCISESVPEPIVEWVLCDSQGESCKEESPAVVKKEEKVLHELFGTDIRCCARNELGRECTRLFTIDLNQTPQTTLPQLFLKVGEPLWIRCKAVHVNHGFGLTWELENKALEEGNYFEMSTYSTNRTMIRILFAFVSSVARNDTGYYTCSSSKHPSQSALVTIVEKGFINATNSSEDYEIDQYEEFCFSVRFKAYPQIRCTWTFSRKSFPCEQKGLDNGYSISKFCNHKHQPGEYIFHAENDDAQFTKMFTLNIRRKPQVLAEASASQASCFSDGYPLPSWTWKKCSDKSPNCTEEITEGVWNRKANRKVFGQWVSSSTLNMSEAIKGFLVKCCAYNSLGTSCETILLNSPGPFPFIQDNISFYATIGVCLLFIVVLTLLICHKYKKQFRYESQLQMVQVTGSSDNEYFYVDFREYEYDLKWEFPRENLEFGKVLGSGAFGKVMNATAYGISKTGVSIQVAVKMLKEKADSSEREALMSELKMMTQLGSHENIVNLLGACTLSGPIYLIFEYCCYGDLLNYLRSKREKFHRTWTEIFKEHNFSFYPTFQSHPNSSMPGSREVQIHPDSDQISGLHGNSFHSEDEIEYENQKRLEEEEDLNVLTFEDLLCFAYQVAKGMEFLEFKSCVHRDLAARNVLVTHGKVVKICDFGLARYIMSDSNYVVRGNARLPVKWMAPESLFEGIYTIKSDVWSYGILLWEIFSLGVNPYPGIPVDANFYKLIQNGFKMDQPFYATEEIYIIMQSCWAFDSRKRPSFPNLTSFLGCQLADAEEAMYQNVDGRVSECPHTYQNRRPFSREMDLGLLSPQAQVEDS
Put plainly: FLT3-D835Y biochemical kinase assay (AlphaScreen). An outline of the steps: as §1

On to `CC(C)(C)n1cnc2ccc(-c3c[nH]c4ncc(-c5cnc(C#N)nc5)nc34)cc21` [P-352, 5-[7-(3-tert-butylbenzimidazol-5-yl)-5H-pyrrolo[2,3-b]pyrazin-2-yl]pyrimidine-2-carbonitrile], for which the IC50 against FLT3-ITD and on FLT3-D835Y was 0.0001 to 1 µM each time.

Turning to `CC(C)(O)c1ncc(-c2cnc3[nH]cc(-c4ccc5ncn(C(C)(C)C)c5c4)c3n2)cn1` [P-380, 2-[5-[7-(3-tert-butylbenzimidazol-5-yl)-5H-pyrrolo[2,3-b]pyrazin-2-yl]pyrimidin-2-yl]propan-2-ol], the IC50 against FLT3-ITD and against FLT3-D835Y was 0.0001 to 1 µM in each case.

For the compound `COc1cc(-c2cc3c(-c4ccc5ncn(C(C)(C)C)c5c4)c[nH]c3nn2)ccn1` [P-315, 5-(3-tert-butylbenzimidazol-5-yl)-3-(2-methoxy-4-pyridyl)-7H-pyrrolo[2,3-c]pyridazine], the half-maximal inhibitory concentration (IC50) at FLT3-ITD and against FLT3-D835Y was 0.0001 to 1 µM throughout.

For the compound `FC(F)(F)Cn1cc(-c2cnc3[nH]cc(-c4ccc5ncn(C6CCCNC6)c5c4)c3c2)cn1` (centres unmarked) [P-275, 1-(3-piperidyl)-6-[5-[1-(2,2,2-trifluoroethyl)pyrazol-4-yl]-1H-pyrrolo[2,3-b]pyridin-3-yl]benzimidazole], the IC50 on FLT3-ITD and against FLT3-D835Y was 0.0001 to 1 µM each time.
